Where a name gives a salt, the structure may show the parent alone.

For 21 compounds, melting point results are on record in patent US20050032873A1, “3-Amino chroman and 2-amino tetralin derivatives” (Wyeth, priority 2003, published 2005).

As for `COc1cccc2c1C[C@@H](N(CCCc1c[nH]c3ccc(F)cc13)C1CCC1)CO2` (as salt: hydrochloride) [Compound 35, (3R)-N-cyclobutyl-N-[3-(5-fluoro-1H-indol-3-yl)propyl]-5-methoxy-3,4-dihydro-2H-chromen-3-amine], the melting point was 115 °C (dec.).

For `CC(CCc1c[nH]c2ccc(F)cc12)N(CC1CC1)C1COc2c(F)ccc(C(N)=O)c2C1` (single isomer, unassigned; (-)) (as salt: hydrochloride) [Compound 15a, (−)-3-{(cyclopropylmethyl)[3-(5-fluoro-1H-indol-3-yl)-1-methylpropyl]amino}-8-fluorochromane-5-carboxamide], the melting point is 135 °C (dec.).

As for `CCCN(CCc1c[nH]c2ccc(F)cc12)C1COc2c(F)ccc(C(N)=O)c2C1` (stereo not drawn) (as salt: hydrochloride) [Compound 77, 8-fluoro-3-[[2-(5-fluoro-1H-indol-3-yl)ethyl](propyl)amino]chromane-5-carboxamide], the melting point is 125 °C (dec.).

With `CCCN(CCCc1coc2c(OC)cccc12)C1COc2c(F)ccc(C(N)=O)c2C1` (stereo not drawn) (as salt: hydrochloride) [Compound 163, 8-fluoro-3-[[3-(7-methoxy-1-benzofuran-3-yl)propyl](propyl)amino]chromane-5-carboxamide], the melting point is 123 to 129 °C.

For the compound `NC(=O)c1ccc(F)c2c1C[C@@H](N(CCCc1c[nH]c3c(F)cc(F)cc13)CC1CC1)CO2` (as salt: hydrochloride) [Compound 147, (3R)-3-{(cyclopropylmethyl)[3-(5,7-difluoro-1H-indol-3-yl)propyl]amino}-8-fluorochromane-5-carboxamide], the melting point was 147 to 151 °C.

In the case of `COc1cccc2c(CCCN(C3CCC3)C3COc4c(F)ccc(C(N)=O)c4C3)c[nH]c12` (stereo not drawn) (as salt: hydrochloride) [Compound 102, 3-{cyclobutyl[3-(7-methoxy-1H-indol-3-yl)propyl]amino}-8-fluorochromane-5-carboxamide], the melting point is 156 to 162 °C (dec.).

Turning to `CCN(CCCc1c[nH]c2ccc(Cl)cc12)C1COc2c(F)ccc(C(N)=O)c2C1` (stereo not drawn) (as salt: hydrochloride) [Compound 115, 3-[[3-(5-chloro-1H-indol-3-yl)propyl](ethyl)amino]-8-fluorochromane-5-carboxamide], the melting point was 149 to 156 °C (dec.).

Consider `CCCCN(CCCc1coc2c(OC)cccc12)C1COc2c(F)ccc(C(N)=O)c2C1` (stereo not drawn) (as salt: hydrochloride) [Compound 166, 3-{butyl[3-(7-methoxy-1-benzofuran-3-yl)propyl]amino}-8-fluorochromane-5-carboxamide], for which the melting point was 110 to 117 °C (dec.).

For the compound `O=C(NCc1ccccc1)c1ccc(F)c2c1CC(N(CCCc1c[nH]c3ccc(F)cc13)C1CCC1)CO2` (stereo not drawn) (as salt: hydrochloride) [Compound 69, N-benzyl-3-{cyclobutyl[3-(5-fluoro-1H-indol-3-yl)propyl]amino}-8-fluorochromane-5-carboxamide], the melting point was 124 °C (dec.).

`CCCN(C(C)CCCc1c[nH]c2ccc(F)cc12)C1COc2c(F)ccc(C(N)=O)c2C1` (single isomer, unassigned; (+)) (as salt: hydrochloride) [Compound 14a, (+)-8-fluoro-3-[[4-(5-fluoro-1H-indol-3-yl)-1-methylbutyl](propyl)amino]chromane-5-carboxamide] came in with a melting point of 148 to 150 °C.

For the compound `NC(=O)c1ccc(F)c2c1CC(NCCCc1c[nH]c3ccc(F)cc13)CO2` (single isomer, unassigned; (+)) (as salt: hydrochloride) [Compound 1a, (+)-8-fluoro-3-{[3-(5-fluoro-1H-indol-3-yl)propyl]amino}chromane-5-carboxamide], the melting point is 89 °C (dec.).

Consider `COc1cccc2c1CC(N(CCCc1c[nH]c3ccc(F)cc13)CC1CC1)CO2` (stereo not drawn) (as salt: hydrochloride) [Compound 37, N-(cyclopropylmethyl)-N-[3-(5-fluoro-1H-indol-3-yl)propyl]-N-(5-methoxy-3,4-dihydro-2H-chromen-3-yl)amine], for which the melting point was 114 °C (dec.).

In the case of `CC(C)NC(=O)c1ccc(F)c2c1CC(N(CCCc1c[nH]c3ccc(F)cc13)C1CCC1)CO2` (stereo not drawn) (as salt: hydrochloride) [Compound 63, 3-{cyclobutyl[3-(5-fluoro-1H-indol-3-yl)propyl]amino}-8-fluoro-N-isopropylchromane-5-carboxamide], the melting point is 127 °C (dec.).

As for `CCCN(CCCc1c[nH]c2ccccc12)C1CCc2cccc(OC)c2C1` (stereo not drawn) (as salt: hydrochloride) [Compound 50, N-[3-(1H-indol-3-yl)propyl]-8-methoxy-N-propyl-1,2,3,4-tetrahydronaphthalen-2-amine], the melting point is 108 °C (dec.).

As to `NC(=O)c1ccc(F)c2c1C[C@H](N(CCCCc1c[nH]c3ccc(F)cc13)C1CCC1)CO2` (as salt: hydrochloride) [Compound 83b, (3S)-3-{cyclobutyl[4-(5-fluoro-1H-indol-3-yl)butyl]amino}-8-fluorochromane-5-carboxamide], the melting point is 128 °C (dec.).

Turning to `CCCN(CCCc1c[nH]c2ccc(F)cc12)C1CCc2c(F)ccc(OC)c2C1` (stereo not drawn) (as salt: hydrochloride) [Compound 51, N-[3-(5-fluoro-1H-indol-3-yl)propyl]-N-(5-fluoro-8-methoxy-1,2,3,4-tetrahydronaphthalen-2-yl)-N-propylamine], the melting point is 107 °C (dec.).

The compound `COc1cccc2c(CCCCN(CC3CC3)C3COc4c(F)ccc(C(N)=O)c4C3)coc12` (stereo not drawn) (as salt: hydrochloride) [Compound 170, 3-{(cyclopropylmethyl)[4-(7-methoxy-1-benzofuran-3-yl)butyl]amino}-8-fluorochromane-5-carboxamide] registered a melting point of 114 to 120 °C.

For `COC(=O)c1ccc(F)c2c1CC(NCCCCc1c[nH]c3ccc(F)cc13)CO2` (stereo not drawn) (as salt: hydrochloride) [Compound 57, Methyl 8-fluoro-3-{[4-(5-fluoro-1H-indol-3-yl)butyl]amino}chromane-5-carboxylate], the melting point was 228 °C (dec.).

For `CNC(=O)c1ccc(F)c2c1CC(NCCCCc1c[nH]c3ccc(F)cc13)CO2` (stereo not drawn) (as salt: hydrochloride) [Compound 92, 8-fluoro-3-{[4-(5-fluoro-1H-indol-3-yl)butyl]amino}-N-methylchromane-5-carboxamide], the melting point was 130 °C (dec.).

Consider `CCN(CCc1c[nH]c2ccc(F)cc12)C1COc2c(F)ccc(C(=O)NC)c2C1` (stereo not drawn) (as salt: hydrochloride) [Compound 85, 3-{ethyl[2-(5-fluoro-1H-indol-3-yl)ethyl]amino}-8-fluoro-N-methylchromane-5-carboxamide], for which the melting point is 125 °C (dec.).

Regarding `CCN(CCc1c[nH]c2ccc(F)cc12)C1COc2c(F)ccc(C(N)=O)c2C1` (stereo not drawn) (as salt: hydrochloride) [Compound 76, 3-{ethyl[2-(5-fluoro-1H-indol-3-yl)ethyl]amino}-8-fluorochromane-5-carboxamide], the melting point was 127 °C (dec.).
